{"source": "patent US5328834A", "about": "“Method for preparing immunoglobulin fragments” (UniSyn Technologies, Inc., priority 1989, dated 1994)", "molecules": {"B1": {"name": "Papain: soluble protease from Sigma used to digest IgG to F(ab) (protein, UniProt P00784 134-345, looked up)", "Papain": "IPEYVDWRQKGAVTPVKNQGSCGSCWAFSAVVTIEGIIKIRTGNLNEYSEQELLDCDRRSYGCNGGYPWSALQLVAQYGIHYRNTYPYEGVQRYCRSREKGPYAAKTDGVRQVQPYNEGALLYSIANQPVSVVLEAAGKDFQLYRGGIFVGPCGNKVDHAVAAVGYGPNYILIKNSWGTGWGENGYIRIKRGTGNSYGVCGLYTSSFYPVKN"}}, "key": {"[1]": {"target": "T1, papain (Carica papaya, UniProt P00784)", "T1 construct": "purchased Sigma Chemical Company (St. Louis, Mo.)", "T1 sequence (P00784 134-345)": "B1 Papain", "assay": "Inhibition of papain esterolytic activity by antipain and leupeptin (BAEE substrate, pH stat)", "type": "biochemical", "settings": "for effect of the presence of IgG substrate on inhibitory activity: 10 mg of human IgG present; for time to inhibit 100% of papain activity: inhibitor 0.4 mg/ml; for Time: time to the stated inhibition", "procedure": "(§1) Papain activity was assayed using N-benzoyl-L-arginine ethyl ester in a pH stat and pepsin activity using hemoglobin substrate, according to the procedures given in the Worthington Enzyme Manual.\nThe ability of antipain and leupeptin to modify papain activity was checked with enzyme, both in the absence and in the presence of immunoglobulin substrate. A 0.5 mg aliquot of active papain was made up in the presence and in the absence of 10 mg of human IgG in 0.025M sodium phosphate buffer containing 10 mM EDTA and 50 mM cysteine (pH 6.2). To each sample, different amounts of either antipain or leupeptin were added and then incubated at 23° C. for 5 minutes. An aliquot of this enzyme was diluted in the same buffer and assayed for papain activity using BAEE as the substrate in the pH stat."}, "[2]": {"system": "avidin-agarose", "assay": "Binding of biotinylated papain to avidin-agarose column", "settings": "0.5 mg through a 1 ml column, pH 8.5 buffer", "description": "The column was eluted with a pH 8.5 buffer and the absorbance of the eluting fractions were monitored at 280 nm."}, "[3]": {"system": "human IgG", "assay": "Digestion of IgG to F(ab) by papain", "type": "biochemical", "protocol": "Typically, 10 mg of IgG in the papain digestion buffer (0,025M sodium phosphate, 10 mM EDTA, 50 mM cysteine, pH 6.2) was added to either 0.5 ml of activated immobilized papain (0.5 mg equivalent of free papain) or 0.5 mg of activated soluble papain in the digestion buffer. The proteolytic cleavage was carried out for various time intervals at 37° C. At the end of each incubation period, the immobilized papain sample was centrifuged to remove the protease and the supernatant transferred to another tube containing 0.5 ml of pH 8.5 buffer. The gel was washed once with 1 ml of pH 8.5 buffer and supernatants combined. In the case of soluble papain, 0.4 mg of antipain or leupeptin in water was added to inactivate the papain and the mixture diluted with 0.5 ml of pH 8.5 buffer.\nThe separation of inactivated papain from the rest of mixture was carried by one of two methods. According to one procedure, an excess of anti-papain IgG (3 mg) was added to complex with the inactivated papain and the Fab fragments were separated from the rest of the mixture by passing through a 1 ml protein A cartridge equilibrated with pH 8.5 buffer. This procedure removed both the protease and its antibody in the form of antigen-antibody complexes. The column was eluted with 5 ml of pH 8.5 buffer to collect the F(ab) fragments and the absorbance of the various fractions was read at 280 nm. In an alternative procedure, the reaction mixture was first passed through an immobilized column of antipapain IgG to remove the inactivated papain and then passed through a 1 ml protein A cartridge equilibrated with pH 8.5 buffer. The Fc and the undigested immunoglobulins were eluted from the protein A cartridge with an elution buffer (pH 3.5).\nAfter 30 minutes incubation at 37° C., 0.4 mg of antipain was added to inactivate the enzyme and then 0.5 ml of pH 8.5 buffer added to the mixture. […] The effluent was passed through a protein A column to adsorb the Fc and the undigested IgG. The F(ab) fragments came out unabsorbed from the protein A column. […]"}, "[4]": {"assay": "Papain activity assay using N-benzoyl-L-arginine ethyl ester in a pH stat", "type": "biochemical", "settings": "BAEE substrate", "procedure": "as §1"}, "[5]": {"settings": "read-out: inhibition of papain activity"}, "[6]": {"settings": "PAPAIN (0.5 mg) + IgG (10 mg), inhibitor 0.4 mg"}, "[7]": {"settings": "PAPAIN (0.5 mg), inhibitor 0.2 mg"}, "[8]": {"settings": "PAPAIN (0.5 mg), inhibitor 0.4 mg"}}, "note": "*1 amine or outer side, *2 acyl side, *3 side chain or, on linkers, in order; H or OH if unused. Where a SMILES comes first, the peptide text is derived from it. CO = O=C([*:1])[*:2]", "data": [{"molecule": "CC(=O)N[C@@H](CC(C)C)C(=O)N[C@@H](CC(C)C)C(=O)N[C@H](C=O)CCCNC(=N)N", "note": "[LEUPEPTIN, Leupeptin]", "values": [{"measurement": "effect of the presence of IgG substrate on inhibitory activity", "setting": "[1]", "result": "did not affect"}, {"measurement": "time to inhibit 100% of papain activity", "setting": "[1]", "result": "≤ 1", "unit": "min"}, {"measurement": "inhibition at 400 µg/mL", "setting": "[1]; [5]", "result": 100, "unit": "%"}, {"measurement": "Time", "setting": "[1]; PAPAIN (0.5 mg) + IgG (10 mg), inhibitor 0.2 mg", "result": "< 1", "unit": "min"}, {"measurement": "Time", "setting": "[1]; [6]", "result": "< 1", "unit": "min"}, {"measurement": "Time", "setting": "[1]; [7]", "result": "< 1", "unit": "min"}, {"measurement": "Time", "setting": "[1]; [8]", "result": "< 1", "unit": "min"}]}, {"molecule": "CC(C)[C@H](NC(=O)[C@H](CCCNC(=N)N)NC(=O)N[C@@H](Cc1ccccc1)C(=O)O)C(=O)N[C@H](C=O)CCCNC(=N)N", "note": "[ANTIPAIN, Antipain] ({Phe-CO}-Arg-Val-Arg-aldehyde)", "values": [{"measurement": "effect of the presence of IgG substrate on inhibitory activity", "setting": "[1]", "result": "did not affect"}, {"measurement": "time to achieve 100% inhibition of papain activity", "setting": "[1]; inhibitor 0.05 mg/ml", "result": "≤ 15", "unit": "min"}, {"measurement": "time to inhibit 100% of papain activity", "setting": "[1]", "result": "≤ 1", "unit": "min"}, {"measurement": "inhibition at 50 µg/mL", "setting": "[1]; [5]", "result": 100, "unit": "%"}, {"measurement": "inhibition at 400 µg/mL", "setting": "[1]; [5]", "result": 100, "unit": "%"}, {"measurement": "Time", "setting": "[1]; PAPAIN (0.5 mg) + IgG (10 mg), inhibitor 0.05 mg", "result": 15, "unit": "min"}, {"measurement": "Time", "setting": "[1]; PAPAIN (0.5 mg) + IgG (10 mg), inhibitor 0.1 mg", "result": 4, "unit": "min"}, {"measurement": "Time", "setting": "[1]; [6]", "result": 1, "unit": "min"}, {"measurement": "Time", "setting": "[1]; PAPAIN (0.5 mg), inhibitor 0.05 mg", "result": 15, "unit": "min"}, {"measurement": "Time", "setting": "[1]; PAPAIN (0.5 mg), inhibitor 0.1 mg", "result": 4, "unit": "min"}, {"measurement": "Time", "setting": "[1]; [7]", "result": 1, "unit": "min"}, {"measurement": "Time", "setting": "[1]; [8]", "result": 1, "unit": "min"}]}, {"molecule": "B1", "values": [{"measurement": "% Binding to Avidin-Agarose", "setting": "[2]", "result": 0, "unit": "%"}, {"measurement": "% Fab Generated", "setting": "[3]; 10 mg IgG, 0.5 mg enzyme, 37° C., 30 minutes", "result": 75, "unit": "%"}, {"measurement": "amount of F(ab) obtained relative to the immobilized form of the enzyme", "setting": "[3]; first 30 minutes", "result": "double"}, {"measurement": "digestion of the total IgG added to F(ab)", "setting": "[3]; human IgG, within the first 30 minutes, 37° C.", "result": 75, "unit": "%"}, {"measurement": "Activity (Unit/mg)", "setting": "[4]", "result": 7.8, "unit": "Unit/mg"}]}]}
